# Experimental data from US20080113900A1, “Pharmaceutical compositions and therapeutic applications for the use of a synthetic vitamin B12 derivative, glutathionylcobalamin” (priority 2006, published 2008).
# “And” between values parts separate entries of the source, which are not always exact repeats. Identical values can stand only once.
# Key:
# [1] = system: SK-HEP-1 cells; experiment: Protection of endothelial cells from H2O2-induced cell death (MTS assay); assay type: cell-based, human; set-up: key to Cell viability (MTS assay): cell viability as % survival; details: SK-HEP-1, n = 6 replicates
# [2] = system: SK-HEP-1 cells; experiment: Protection from homocysteine-induced apoptosis, Caspase-3 activity (apoptosis assay); assay type: cell-based, human; details: 30 μM two hours, then 30 μM homocysteine two hours
# Description: Caspase 3 is activated when cells undergo apoptosis. Caspase-3 assay is a standard for apoptosis assay. Homocysteine is a known inducer of apoptosis. Cells were cultured in 96-well plates for 24 hours and then treated with reagents under test conditions. Cytotoxic agents, H2O2 and etoposide were added to negative control wells. The assay was performed according to the manufacturer's protocol, as follows: Cells were re-suspended in 100 μl of clear media and 50 μl of Caspase-3 substrate solution was immediately added to each test well. […] Cell viability was determined by MTS® assay. […] Cell viability was determined by MTS® assay.
# [3] = system: SK-HEP-1 cells; experiment: Protection of endothelial cells from H2O2-induced cell death (MTS assay); assay type: cell-based, human; set-up: key to Cell viability (MTS assay): cell viability as % survival; details: for Cell viability (MTS assay): SK-HEP-1, n = 6 replicates
# Description: The effect of increasing concentrations of NACCbl and GSCbl to protect endothelial cells from the effect of H2O2 was assessed. […] Cell viability was determined by MTS® assay. […] FIG. 3 illustrates that NACCbl and GSCbl protect endothelial cells from the effect of H2O2. […] Cell viability was determined by MTS® assay. […] There was no difference between the protection afforded by NACCbl and that by GSCbl. Both required 100 μM to achieve >80% survival.
# [4] = system: Hsp32; experiment: Hsp32 gene expression (RT-PCR, densitometry); assay type: cell-based, human; details: SK-HEP-1; Sn (IX) protoporphyrin 25 μM; Quercitin 15 μM
# [5] = target: T1, methionine synthase (Oryctolagus cuniculus, UniProt G1SXW3); details: rabbit spleen extracts; cited from earlier work
# T1 construct: methionine synthase activity in rabbit spleen extracts; from tissue; host or cells: rabbit spleen extract
# [6] = Decomposition in PBS at 37° C. monitored by UV/Vis spectrophotometry; assay type: physicochemical
# Description: The decomposition of GSCbl, NACCbl, and HcyCbl in PBS at 37° C. was monitored by UV/Vis spectrophotometry.
# [7] = system: SK-HEP-1 cells; experiment: Effect of high concentrations of NACCbl and GSCbl on SK-HEP-1 cells (MTS assay, 24 hours); assay type: cell-based, human; details: for Cell viability by MTS assay (FIG. 13): SK-HEP-1, 3 replicates
# [8] = system: SK-HEP-1 cells; experiment: Protection of endothelial cells from homocysteine-induced cell death (MTS assay); assay type: cell-based, human
# Description: The effect of a constant concentration of NACCbl and GSCbl to protect cells against variable concentrations of homocysteine was assessed. […] Cell viability was determined by MTS® assay. Data shown in FIG. 4 are representative of means ±SE of 6 independent samples. FIG. 4 illustrates that NACCbl (▪) and GSCbl (▴) protect endothelial cells from the effect of homocysteine. […] Cell viability was determined by MTS® assay. […] There was a decrease in protection as homocysteine concentration increased, but there was still ˜60% survival at 50 μM homocysteine.
# The data was normalized (log 2 and log 10) as shown in FIGS. 16 and 17 and Tables 16 and 17, respectively, below.
# [9] = in vitro; details: human, SK-HEP-1 cells
# [10] = system: SK-HEP-1 cells; experiment: Effect of homocysteine and H2O2 on endothelial cell viability (MTS assay); details: for Cell viability (MTS assay): SK-HEP-1, 2 hours, n = 6 replicates
# [11] = system: SK-HEP-1 cells; details: 12.5 µM
# T1 sequence (G1SXW3 1-1218): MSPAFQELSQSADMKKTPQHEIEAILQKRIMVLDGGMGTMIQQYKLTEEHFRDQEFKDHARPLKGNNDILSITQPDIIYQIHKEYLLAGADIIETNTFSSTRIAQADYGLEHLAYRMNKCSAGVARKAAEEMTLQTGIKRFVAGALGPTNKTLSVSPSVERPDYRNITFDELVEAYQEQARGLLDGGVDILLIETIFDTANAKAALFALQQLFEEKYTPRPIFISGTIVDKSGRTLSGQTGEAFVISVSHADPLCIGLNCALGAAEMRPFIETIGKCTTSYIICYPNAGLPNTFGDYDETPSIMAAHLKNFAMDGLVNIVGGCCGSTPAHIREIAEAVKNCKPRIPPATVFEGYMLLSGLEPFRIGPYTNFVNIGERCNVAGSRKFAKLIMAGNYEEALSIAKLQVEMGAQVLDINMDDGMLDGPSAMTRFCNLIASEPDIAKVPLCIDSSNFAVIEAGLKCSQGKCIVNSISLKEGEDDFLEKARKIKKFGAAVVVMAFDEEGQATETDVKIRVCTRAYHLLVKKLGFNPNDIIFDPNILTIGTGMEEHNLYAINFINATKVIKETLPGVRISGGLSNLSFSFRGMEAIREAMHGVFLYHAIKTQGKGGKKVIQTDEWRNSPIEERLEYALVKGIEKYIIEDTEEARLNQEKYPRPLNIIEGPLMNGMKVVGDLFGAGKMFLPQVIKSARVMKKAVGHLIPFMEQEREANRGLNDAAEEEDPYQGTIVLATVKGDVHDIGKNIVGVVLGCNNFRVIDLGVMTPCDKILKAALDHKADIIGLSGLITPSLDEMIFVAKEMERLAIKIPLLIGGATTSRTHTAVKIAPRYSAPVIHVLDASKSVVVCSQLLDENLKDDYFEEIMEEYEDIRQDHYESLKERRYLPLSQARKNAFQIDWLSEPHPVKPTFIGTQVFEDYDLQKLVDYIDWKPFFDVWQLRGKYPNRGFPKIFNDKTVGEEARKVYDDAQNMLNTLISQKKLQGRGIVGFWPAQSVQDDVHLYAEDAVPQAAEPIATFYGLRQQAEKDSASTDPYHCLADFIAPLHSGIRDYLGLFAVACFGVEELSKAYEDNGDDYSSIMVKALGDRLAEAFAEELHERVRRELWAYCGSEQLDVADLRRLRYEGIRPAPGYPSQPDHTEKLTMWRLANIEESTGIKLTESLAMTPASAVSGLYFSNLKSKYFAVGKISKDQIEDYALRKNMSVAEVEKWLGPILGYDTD
compound,measurement,setting,value
"C/C1=C2N=C(/C=C3N=C(/C(C)=C4\[N-]C(C(CC(N)=O)C4(C)CCC(=O)NCC(C)OP(=O)([O-])OC4C(CO)OC(n5cnc6cc(C)c(C)cc65)C4O)C4(C)N=C1C(CCC(N)=O)C4(C)CC(N)=O)C(CCC(N)=O)C\3(C)C)C(CCC(N)=O)C/2(C)CC(N)=O.NC(CCC(=O)NC(C[S-])C(=O)NCC(=O)O)C(=O)O.[Co+3] (centres unmarked) [GSCbl, Glutathionylcobalamin]",Cell viability (MTS assay),"[1]; compound 30 μM two hours, then H2O2 0 μM",99.24 and 102.2264 and 105.5898 and 103.6002 and 104.0265 and 104.5476
same,Cell viability (MTS assay),"[1]; compound 30 μM two hours, then H2O2 0.781 μM a further two hours",96.12 and 98.39 and 97.3946 and 98.0578 and 96.02 and 95.31
same,Cell viability (MTS assay),"[1]; compound 30 μM two hours, then H2O2 1.56 μM a further two hours",93.56 and 90.81 (2×) and 92.33 and 88.25 and 91.8522
same,Cell viability (MTS assay),"[1]; compound 30 μM two hours, then H2O2 3.125 μM a further two hours",40.31 and 91.33 and 87.3046 and 82.33 and 79.77 and 77.59
same,Cell viability (MTS assay),"[1]; compound 30 μM two hours, then H2O2 6.25 μM a further two hours",36.52 and 39.7442 and 34.49 and 34.72 and 34.86 and 36.1
same,Cell viability (MTS assay),"[1]; compound 30 μM two hours, then H2O2 12.5 μM a further two hours",29.7963 and 32.02 and 36.1 and 32.4 and 29.99 and 33.92
same,Cell viability (MTS assay),"[1]; compound 30 μM two hours, then H2O2 25 μM a further two hours",23.54 and 26.53 and 22.93 and 24.44 and 22.03 and 20.42
same,Cell viability (MTS assay),"[1]; compound 30 μM two hours, then H2O2 50 μM a further two hours",15.02 and 20.8432 and 18.95 and 13.12 and 15.6324 and 17.62
same,Cell viability (MTS assay),"[1]; compound 30 μM two hours, then H2O2 100 μM a further two hours",10.8 and 12.36 and 11.5585 and 9.995 and 6.679 and 8.527
same,Cell viability (MTS assay),"[1]; compound concentration 3.125, 2 hours, then 25 μM H2O2 24 hours",20.88 and 30.9 and 21.34 and 26.8116
same,Cell viability (MTS assay),"[1]; compound concentration 50, 2 hours, then 25 μM H2O2 24 hours",42.69 and 45.72 and 48.16 and 46.9 and 46.77 and 51.84
same,Protection against apoptosis induced by homocysteine,[2],total protection
same,Difference between protection by NACCbl and by GSCbl,[3]; 25 μM H2O2 24 hours,no difference
same,Concentration required to achieve >80% survival,"[3]; 2 hours, then 25 μM H2O2 24 hours",100 µM
same,Protection from H2O2,"[3]; GSCbl 30 μM, above 7.5 μM H2O2",did not provide significant protection
same,Cell viability (MTS assay),"[3]; compound 30 μM two hours, then H2O2 200 μM a further two hours",1.326 and 7.153 and 3.6 and 1.942 and 5.921 and 0.7579
same,Cell viability (MTS assay),"[3]; compound concentration 6.25, 2 hours, then 25 μM H2O2 24 hours",48.68 and 56.26 and 45.98 and 43.35 and 42.09 and 41.96
same,Cell viability (MTS assay),"[3]; compound concentration 12.5, 2 hours, then 25 μM H2O2 24 hours",44.27 and 54.35 and 50.53 and 47.04 and 44.14 and 42.09
same,Cell viability (MTS assay),"[3]; compound concentration 25, 2 hours, then 25 μM H2O2 24 hours",41.24 and 45.5863 and 42.23 and 45.26 and 41.7 and 44.99
same,Cell viability (MTS assay),"[3]; compound concentration 100, 2 hours, then 25 μM H2O2 24 hours",64.62 (2×) and 77.87 and 71.61 and 72.6 and 76.5481
same,Cell viability (MTS assay),"[3]; compound concentration 200, 2 hours, then 25 μM H2O2 24 hours",94.07 and 100.0659 and 102.8327 and 93.87 and 105.5995 and 94.73
same,Hsp32 gene expression,[4],induce Hsp32
same,Promotion of methionine synthase activity,[5],more active than other cobalamins
same,t1/2,[6],No decomposition within 20 hours
same,Cell viability by MTS assay (FIG. 13),"[7]; compound conc. 0.61, 24 hours",2.554 and 2.376 and 2.53
same,Cell viability by MTS assay (FIG. 13),"[7]; compound conc. 1.22, 24 hours",2.347 and 2.433 and 2.503
same,Cell viability by MTS assay (FIG. 13),"[7]; compound conc. 2.441, 24 hours",2.527 and 2.434 and 2.46
same,Cell viability by MTS assay (FIG. 13),"[7]; compound conc. 4.882, 24 hours",2.543 and 2.528 and 2.519
same,Cell viability by MTS assay (FIG. 13),"[7]; compound conc. 9.765, 24 hours",2.532 and 2.476 and 2.42
same,Cell viability by MTS assay (FIG. 13),"[7]; compound conc. 19.531, 24 hours",2.553 and 2.476 and 2.42
same,Cell viability by MTS assay (FIG. 13),"[7]; compound conc. 39.062, 24 hours",2.492 and 2.484 and 2.468
same,Cell viability by MTS assay (FIG. 13),"[7]; compound conc. 78.125, 24 hours",2.444 and 2.406 and 2.402
same,Cell viability by MTS assay (FIG. 13),"[7]; compound conc. 156.25, 24 hours",2.407 and 2.37 and 2.318
same,Cell viability by MTS assay (FIG. 13),"[7]; compound conc. 312.5, 24 hours",2.306 and 2.204 and 2.138
same,Cell viability by MTS assay (FIG. 13),"[7]; compound conc. 625, 24 hours",2.197 and 1.912 and 1.787
same,Cell viability by MTS assay (FIG. 13),"[7]; compound conc. 1250, 24 hours",1.973 and 1.846 and 1.71
same,Cell viability by MTS assay (FIG. 13),"[7]; compound conc. 2500, 24 hours",1.775 and 1.81 and 1.896
same,Cell viability by MTS assay (FIG. 13),"[7]; compound conc. 5000, 24 hours",1.728 and 1.67 and 1.623
same,Cell viability by MTS assay (FIG. 13),"[7]; compound conc. 10000, 24 hours",1.322 and 1.342 and 1.366
same,Cell death compared with NACCbl,[7]; above 0.2 mM concentration,caused greater cell death than NACCbl
same,Concentration required for >80% survival protection,"[8]; 2 hours, then 30 μM homocysteine 24 hours",50 µM
same,Protection against homocysteine-induced damage compared with free thiols,"[8]; Hcy 30 μM, NAC 45 μM, GSH 100 μM, NACCbl 12.5 μM, GSCbl 15 μM",superior to the free thiols
same,"Mean (FIG. 14a, protection of SK-HEP-1 cells from Hcy in the presence of folate)","[8]; [Hcy] 30 μM, folate 25 μM present, [GSCbl] = 15 μM, [NACCbl] = 12.5 μM, [CNCbl] = 15 μM, [MeCbl] = 12.5 μM, [HOCbl] = 17.5 μM, [NAC] = 45 μM, [GSH] = 100 μM",2.524
same,Survival,"[8]; compound 30 μM, 50 μM homocysteine",~60%
same,Protection from homocysteine-induced cell death,"[8]; pre-incubation 30 μM two hours, variable homocysteine two hours",protected cells from homocysteine-induced cell death
"OO [H2O2, Hydrogen peroxide]","viability at 2 h, 0.781 µM",[9],99.4%
same,"viability at 2 h, 1.562 µM",[9],96.4%
same,"viability at 2 h, 6.25 µM",[9],32.6%
same,"viability at 2 h, 12.5 µM",[9],12.4%
same,"viability at 2 h, 25 µM",[9],3.18%
same,Concentration achieving greater than 90% death (<10% survival),"[10]; SK-HEP-1, 2 hours",12.5 µM
same,Concentration sufficient to kill cultured endothelial cells,"[10]; SK-HEP-1, 2 hours, P<0.001",≥ 3 μm
same,Cell viability (MTS assay),[10]; 0.781 μM,102.4429 and 98.07 and 98.74 and 102.3076 and 99.02
same,Cell viability (MTS assay),[10]; 1.562 μM,96.08 and 96.67 and 98.97 and 85.98
same,Cell viability (MTS assay),[10]; 3.125 μM,46.88 and 52.02 and 50.62 and 52.38 and 82.7345 and 84.54
same,Cell viability (MTS assay),[10]; 6.25 μM,33.89 and 32.31 and 35.2 and 32.54 and 30.46
same,Cell viability (MTS assay),[10]; 25 μM,3.63 (2×) and 3.225 and 3.27 and 3.585
same,Cell viability (MTS assay),[10]; 50 μM,0.4284 and 0.06765 and 0.4735
same,viability,[11],11.3% and 10.1% and 11.8% and 11.7% and 12.4%
